US12497365B2, “4-pyridinyl formamide compound or derivative thereof, preparation method therefor, herbicidal composition and use thereof” (Qingdao Kingagroot Chemical Compound Co., Ltd., priority 2019, dated 2025)

Experiments:
Assay in all cases: Weeding effect in post-emergence stage
Type in all cases: in vivo
Conditions in all cases: active ingredient 2000 g/ha, 3 weeks after application, fresh weight control rate
Descurainia sophia = system: Descurainia sophia
Text: (§1) The activity level criteria for plant damage (i.e., growth control rate) are as follows:
(§2) The above growth control rates are fresh weight control rates.
(§3) Experiment on weeding effect in post-emergence stage: monocotyledonous and dicotyledonous weed seeds and major crop seeds (wheat, corn, rice, soybean, cotton, oilseed rape, millet, sorghum) were placed in plastic pots filled with soil, then covered with 0.5-2 cm of soil, allowed to grow in a good greenhouse environment. After 2 weeks of sowing, the test plants were treated in the 2-3 leaf stage. The tested compounds of the present invention were respectively dissolved in acetone at the dosage of 2000, 1000, 500, 250, 125 g/ha, then added with Tween 80 and 1.5 liter/ha of emulsifiable concentrate of methyl oleate as synergist, diluted with a certain amount of water to obtain a solution with a certain concentration, and sprayed with a spray tower onto the plants. After the application, the plants were cultured for 3 weeks in the greenhouse, and then the experimental results were listed in Table 1.

Chenopodium album = system: Chenopodium album
Text: as §1, §2, §3

Abutilon theophrasti = system: Abutilon theophrasti
Text: as §1, §2, §3

[1] = system: Amaranthus retroflexus L.
Text: as §1, §2, §3

Structure (SMILES) | Weeding effect, activity level (growth control rate), Descurainia sophia (Descurainia sophia) | Weeding effect, activity level (growth control rate), Chenopodium album (Chenopodium album) | Weeding effect, activity level (growth control rate), Abutilon theophrasti (Abutilon theophrasti) | Weeding effect, activity level (growth control rate), Amaranthus retroflexus L. [1]
CN(C)c1c(C(=O)Nc2nnnn2C)ccnc1-c1ccc(Cl)cc1 [Compound 1-2044] | 5 (Level 5: growth control rate is above 85%) | 5 (Level 5: growth control rate is above 85%) | 5 (Level 5: growth control rate is above 85%) | 5 (Level 5: growth control rate is above 85%)
COc1ccc(-c2nccc(C(=O)Nc3nnnn3C)c2Cl)cn1 [Compound 1-143] | 5 (Level 5: growth control rate is above 85%) | 5 (Level 5: growth control rate is above 85%) | 5 (Level 5: growth control rate is above 85%) | 5 (Level 5: growth control rate is above 85%)
Cn1nnnc1NC(=O)c1ccnc(-c2cncs2)c1Cl [Compound 1-229] | 5 (Level 5: growth control rate is above 85%) | 5 (Level 5: growth control rate is above 85%) | 5 (Level 5: growth control rate is above 85%) | 5 (Level 5: growth control rate is above 85%)
COc1c(Cl)ccc(-c2nccc(C(=O)Nc3nnnn3C)c2Cl)c1F [Compound 1-110] | 5 (Level 5: growth control rate is above 85%) | 5 (Level 5: growth control rate is above 85%) | 5 (Level 5: growth control rate is above 85%) | 5 (Level 5: growth control rate is above 85%)
Cn1nnnc1NC(=O)c1ccnc(-c2ccc(F)cc2F)c1Cl [Compound 1-64] | 5 (Level 5: growth control rate is above 85%) | 5 (Level 5: growth control rate is above 85%) | 5 (Level 5: growth control rate is above 85%) | 5 (Level 5: growth control rate is above 85%)
Cn1nnnc1NC(=O)c1ccnc(-c2cc(Cl)nc(Cl)c2)c1Cl [Compound 1-153] | 5 (Level 5: growth control rate is above 85%) | 5 (Level 5: growth control rate is above 85%) | 5 (Level 5: growth control rate is above 85%) | 5 (Level 5: growth control rate is above 85%)
Cn1nnnc1NC(=O)c1ccnc(-c2ccc(F)cc2)c1[N+](=O)[O-] [Compound 1-212] | 5 (Level 5: growth control rate is above 85%) | 5 (Level 5: growth control rate is above 85%) | 5 (Level 5: growth control rate is above 85%) | 5 (Level 5: growth control rate is above 85%)
Cn1nnnc1NC(=O)c1ccnc(-c2ccc(F)cc2)c1-c1ccc(F)cc1 [Compound 1-223] | 5 (Level 5: growth control rate is above 85%) | 5 (Level 5: growth control rate is above 85%) | 5 (Level 5: growth control rate is above 85%) | 5 (Level 5: growth control rate is above 85%)
Cc1[nH]ncc1-c1nccc(C(=O)Nc2nnnn2C)c1Cl [Compound 1-171] | 5 (Level 5: growth control rate is above 85%) | 5 (Level 5: growth control rate is above 85%) | 5 (Level 5: growth control rate is above 85%) | 5 (Level 5: growth control rate is above 85%)
Cn1nnnc1NC(=O)c1ccnc(-c2cc(F)ccc2F)c1Cl [Compound 1-63] | 5 (Level 5: growth control rate is above 85%) | 5 (Level 5: growth control rate is above 85%) | 5 (Level 5: growth control rate is above 85%) | 5 (Level 5: growth control rate is above 85%)
Cn1nnnc1NC(=O)c1ccnc(-c2cc(C(F)(F)F)ccc2F)c1Cl [Compound 1-75] | 5 (Level 5: growth control rate is above 85%) | 5 (Level 5: growth control rate is above 85%) | 5 (Level 5: growth control rate is above 85%) | 5 (Level 5: growth control rate is above 85%)
COc1ccc(-c2nccc(C(=O)Nc3nnnn3C)c2Cl)cc1 [Compound 1-30] | 5 (Level 5: growth control rate is above 85%) | 5 (Level 5: growth control rate is above 85%) | 5 (Level 5: growth control rate is above 85%) | 5 (Level 5: growth control rate is above 85%)
Cn1nnnc1NC(=O)c1ccnc(-c2ccc(F)c(C(F)(F)F)c2)c1Cl [Compound 1-85] | 5 (Level 5: growth control rate is above 85%) | 5 (Level 5: growth control rate is above 85%) | 5 (Level 5: growth control rate is above 85%) | 5 (Level 5: growth control rate is above 85%)
Cn1nnnc1NC(=O)c1ccnc(-c2cccc(F)c2)c1Cl [Compound 1-16] | 5 (Level 5: growth control rate is above 85%) | 5 (Level 5: growth control rate is above 85%) | 5 (Level 5: growth control rate is above 85%) | 5 (Level 5: growth control rate is above 85%)
Cn1nnnc1NC(=O)c1ccnc(-c2cc(C#N)ccn2)c1Cl [Compound 1-122] | 5 (Level 5: growth control rate is above 85%) | 5 (Level 5: growth control rate is above 85%) | 5 (Level 5: growth control rate is above 85%) | 5 (Level 5: growth control rate is above 85%)
Cn1nnnc1NC(=O)c1ccnc(-c2ccncc2F)c1Cl [Compound 1-150] | 5 (Level 5: growth control rate is above 85%) | 5 (Level 5: growth control rate is above 85%) | 5 (Level 5: growth control rate is above 85%) | 5 (Level 5: growth control rate is above 85%)
